The source of these data is patent publication US20150031686A1, “PHENYL-OXAZOLYL DERIVATIVES, PREPARATION METHOD THEREOF, AND RELATED APPLICATION OF THE PHENYL-OXAZOLYL DERIVATIVES AS AN IMPDH INHIBITOR” (INSTITUTE OF MEDICINAL BIOTECHNOLOGY, CHINESE ACADEMY OF …, priority 2012, published 2015).

For data set [1], the system named is hepatitis B virus. The experiment in a line: microbe, parasite or virus in culture. Particulars: read-out: IC50 (50% inhibition concentration of the virus).
Data set [2] relates to hepatitis B virus. Particulars: cell line 2215, hepatitis B virus.
In data set [3] the test system is IMPDH. The experiment in a line: IMPDH inhibition activity (A340, IMP substrate, NAD). To be noted: compound at 10 μg/mL. Type of data set: biochemical. The method, then:
Measurement of IMPDH Inhibitor Activity
In 96-well plates, use IMP as the substrate and NAD, NADH as chromogenic agents to determine the activity of the compounds described in this invention as IMPDH inhibitor. Add 2 μl of each of the tested sample solution, 20 μl enzyme extract and 30 μl IMP into a sample well in the 96-well plates; 2 μl DMSO and 30 μl IMP solution into a control well; 2 μl DMSO and 20 μl IMPDH buffer instead of the enzyme extract and 30 μl IMP solution into a blank well. Keep plates at constant 37° C. for 15 min, measure absorbance values A340 (OD1) of the solutions in various wells; subsequently, add into each well with 50 μl NAD, keep at constant 37° C. for 50 min, then measure A340 (OD2) values. Calculate IMPDH inhibition rates of samples as follows: Inhibition (%)=[(OD2−OD1)control−(OD2−OD1)Sample]/[(OD2−OD1)control−(OD2−OD1)Blank]×100%.

For data set [4], the system named is Coxsackie virus type B6 (COX-B6). In words: Anti-Coxsackie virus type B6 (COX-B6) activity, CPE in Vero cells. Type of data set: cell-based. Particulars: Reed-Muench. Here is the method:
With Vero (African green monkey kidney) cells as viral hosts, inhibitory effects of the compounds of present invention on the grades of pathological lesions by coxsackievirus B3 (COX-B3), B6 (COX-B6) viruses in Vero cells were determined. The measured results of viral inhibitory activity of the compounds are shown in Table 3 and Table 4; wherein RBV is the control drug ribavirin. The inhibitory activities of the measured compounds against coxsackievirus B3, B6 were stronger than the control.
Screening of Anti-B3, B6 Type Coxsackie Viruses (COX-B3, COX-B6) Activity of the Samples
Prepare stock solutions of COX-B3 (or COX-B6) virus strains as well as tested compounds in DMSO before use. Before tests, dilute the stock solution with culture solution into a certain concentration and then dilute 3 times to make a total of eight dilutions. Use ribavirin (RBV) as positive control. Test procedures are as follows: seed Vero cells into 96-well culture plates, infect with 10^−5 Coxsackie virus of B3 (or B6) type, 24 hours later; adsorb subsequently for 2 hours, then discard the virus solution, add in the sample compounds and the positive control according to the abovementioned dilutions, set cell control wells and virus control wells simultaneously. When the cytopathic effect (CPE) of cells in the virus control wells reach 4+, observe CPE of the cells in each group. Use Reed-Muench method to calculate 50% inhibitory concentration (IC50) of the sample compounds against coxsackie virus B3 (or B6) type.

The test system of data set [5] is Coxsackie virus type B3 (COX-B3). The experiment in a line: Anti-Coxsackie virus type B3 (COX-B3) activity, CPE in Vero cells. Type of data set: cell-based. To be noted: Reed-Muench. A digest of the protocol:
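Vero cells infected with 10^−5 COX-B3 or COX-B6 virus, adsorbed 2 h; virus removed, then compounds added at eight 3-fold dilutions, ribavirin as positive control. CPE scored when virus controls reached 4+; IC50 by Reed-Muench.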

In data set [6] the test system is hepatitis B virus strain A64 (lamivudine resistance). The experiment in a line: in vitro. Particulars: human.
For data set [7] the test system is unchanged. In words: microbe, parasite or virus in culture. Particulars: read-out: IC50 (50% inhibition concentration of the virus).
Data set [8] deals with human hepatoma cell HepG2. In words: In vitro human hepatoma cell HepG2 inhibitory activity (MTT). Type of data set: cell-based. Particulars: Homo sapiens, HepG2, 48 h. From the text: (§1) According to the progress in the studies on anticancer drugs using IMPDH as a target, the present invention measured inhibitory activities of the compounds of present invention against human hepatoma cell HepG2 and human lung adenocarcinoma cell A549, respectively, the measured results are shown in Table 5:
In Vitro Human Hepatoma Cell HepG2 Inhibitory Activity Measurement
Collect well growing tumor cells, prepare 6×10^4/ml cell suspension in RPMI-1640 or DMEM culture medium containing 10% FBS, seed in 96-well plates, 100 μl suspension each well, incubate at 37° C. under 5% CO2 atmosphere for 24 h, add the test solution (final concentration of drug: 0.625, 1.25, 2.5, 5.0, 10 μg/ml), for each concentration set three parallel holes, set positive control (cisplatin 10, 1, 0.1 μg/ml) and a blank control simultaneously. After culture for 48 h discard the supernatants, add into each well 10 μl MTT solution (5 mg/ml, prepared with RPMI-1640 medium), continue culturing for 4 It, add into each hole 100 μl acidified isopropanol cell lysate, culture overnight, measure absorbance (A) values with Bio-Tek MQX200 type microplate reader with the detection wavelength at 540 nm, and reference wavelength 450 nm. Calculate the inhibition rate as follows: inhibition rate=(Ablank−Asample)/Ablank control×100%. Use Graphpad Prism 5 statistical software to calculate IC50.

Data set [9] has as its system hepatitis B virus strain A64 (lamivudine resistance).
Data set [10] has as its system human lung adenocarcinoma cell A549. In words: In vitro human lung adenocarcinoma cell A549 inhibitory activity (MTT). Particulars: Homo sapiens, A549, 48 h. The data set is classed as cell-based.
Excerpt: as §1
In Vitro Human Lung Adenocarcinoma Cell A549 Inhibitory Activity Measurement
Cell lines: human lung adenocarcinoma cell A549. Collect well growing tumor cells, prepare cell suspension with Ham's F12 culture solution containing 10% fetal calf serum medium, seed the suspension in 96-well plates, each well 100 μl suspension at 5000 cells/well, incubate at 37° C., under 5% CO2 atmosphere, 24 h later, add 2×drug solution […], each concentration in three parallel holes, set the blank control simultaneously. After culture for 48 h, add 20 μl (5 mg/ml) MTT to each well, culture 4 h, discard the supernatants. Measure absorbance (A) values using Bio-Rad 680 microplate reader at a detection wavelength of 570 nm, the survival rate (%) is calculated as follows: AsampleAblank control×100%. Use statistical software Graphpad Prism5 to calculate IC50. After primary screening of all samples, adjust the concentration gradient of the samples with IC50<100 μg/ml to do additional screenings, which are carried out with two parallel determinations.

Data set [11] relates to hepatitis B virus. The experiment in a line: in vitro. Particulars: human.
Data set [12] relates to mouse spleen cell. In words: Mouse spleen cell proliferation inhibiting activity. The data set is classed as cell-based. To be noted: mouse spleen cells. An excerpt:
The present invention also provides the results of experimental studies on the biological activity of said compounds.

The structures appear in SMILES notation. ≈ marks a conversion by molar mass, not a printed value.

Take `COc1cc(NCc2ccc(Cl)s2)ccc1-c1cnco1` [Compound 4, N-(5-chlorothien-2-ylmethyl)-3-methoxy-4-(oxazol-5-yl) aniline]: the IC50 was determined as 2.72 mg/L (≈ 8.48 µM) in [1]; 0.27 mg/L (≈ 0.842 µM) in data set [4]; 0.44 mg/L (≈ 1.37 µM) in data set [5]; 1.78 mg/L (≈ 5.55 µM) in data set [7]; 29.1 mg/L (≈ 90.7 µM) in data set [8]; 16 mg/L (≈ 50 µM) in data set [10]. Further, the “TC50 (half toxic concentration)” value in data set [2] is 100 mg/L (≈ 312 µM); in data set [9], greater than 50 mg/L. In addition, the “inhibition rate (%) 10 μg/mL” value in [3] came to 74.9%. Moreover, the selectivity ratio is greater than 28.1 in data set [6] and 36.8 in [11].

As to `COc1cc(NCc2ccc(C)s2)ccc1-c1cnco1` [Compound 2, N-(5-methylthien-2-ylmethyl)-3-methoxy-4-(oxazol-5-yl) aniline], the “inhibition rate (%) 10 μg/mL” value in data set [3] was 68.7%. For the same molecule, the IC50 in data set [4] was 0.63 mg/L (≈ 2.1 µM); in [5], 0.23 mg/L (≈ 0.766 µM); in data set [8], 7.95 mg/L (≈ 26.5 µM); in data set [10] it was 18.6 mg/L (≈ 61.9 µM).

As for `COc1cc(NCc2ccc(Br)s2)ccc1-c1cnco1` [Compound 5, N-(5-bromothien-2-ylmethyl)-3-methoxy-4-(oxazol-5-yl) aniline], the “inhibition rate (%) 10 μg/mL” value in data set [3] amounted to 58.9%. Besides, the IC50 worked out at 0.44 mg/L (≈ 1.2 µM) in data set [4], 0.47 mg/L (≈ 1.29 µM) in [5], 83.4 mg/L (≈ 228 µM) in data set [8] and 16.5 mg/L (≈ 45.2 µM) in [10].

With `COc1ccc(CNc2ccc(-c3cnco3)c(OC)c2)cc1` [Compound 61, N-(4-methoxybenzyl)-3-methoxy-4-(oxazol-5-yl) aniline], the “inhibition rate (%) 10 μg/mL” value in data set [3] is reported as 73.7%. For the same molecule, the IC50 in data set [4] stood at 1.06 mg/L (≈ 3.42 µM); in data set [5], 0.64 mg/L (≈ 2.06 µM); in [8], 36.2 mg/L (≈ 117 µM); in data set [10], 29.4 mg/L (≈ 94.8 µM).

With `COc1cc(NCc2c[nH]c3ccccc23)ccc1-c1cnco1` [Compound 53, N-(1H-indol-3-ylmethyl)-3-methoxy-4-(oxazol-5-yl) aniline], in data set [3], the “inhibition rate (%) 10 μg/mL” value is listed as 39.2%. The IC50 in [4] is 7.41 mg/L (≈ 23.2 µM); in data set [5], greater than 2.47 mg/L; in [8], 22.5 mg/L (≈ 70.6 µM); in data set [10], 38.6 mg/L (≈ 121 µM).

In the case of `COc1ccccc1/C=C/CNc1ccc(-c2cnco2)c(OC)c1` [Compound 63], the IC50 amounted to 2.47 mg/L (≈ 7.34 µM) in data set [4]; 0.47 mg/L (≈ 1.4 µM) in [5]; 2.22 mg/L (≈ 6.6 µM) in data set [12]; 19.4 mg/L (≈ 57.5 µM) in [8]; 14.1 mg/L (≈ 42 µM) in data set [10].

`COc1cc(NCc2ccc(C)o2)ccc1-c1cnco1` [Compound 42, N-(5-methylfuran-2-ylmethyl)-3-methoxy-4-(oxazol-5-yl) aniline]: the “inhibition rate (%) 10 μg/mL” value in data set [3] came to 60.7%. The IC50 in [4] amounted to 1.93 mg/L (≈ 6.79 µM); in data set [5], 1.43 mg/L (≈ 5.03 µM); in data set [8], 31.3 mg/L (≈ 110 µM); in data set [10], 20.7 mg/L (≈ 72.8 µM).
